US9452997B2, “Piperidine and piperazine derivatives as autotaxin inhibitors” (Merck Patent GmbH, priority 2009, dated 2016)

These compounds were tested against T1, Recombinant autotaxin (Homo sapiens, UniProt Q13822) (assay: Autotaxin assay (Amplex Red, LPC substrate)). Details: recombinant autotaxin, LPC substrate, Amplex Red detection; values given as upper bounds.
T1 construct: made in house; host or cells: Hi5 insect cells (baculovirus)
Type: biochemical
Summary of the method: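 Recombinant autotaxin (Hi5 baculovirus, 16 ng) pre-incubated with compound 30 min at 22° C, then reacted with 75 μM egg LPC for 90 min at 37° C. Choline released is coupled to H2O2 and Amplex Red fluorescence (ex 485/em 612 nm). IC50 from ten 1:3 dilutions from 30 μM, duplicates, normalised to 500 μM C14 LPA.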

Row | Compound | IC50
1 | O=C(OCc1ccc(C(F)(F)F)c(Cl)c1)N1CCC(N2CCN(C(=O)c3ccc4[nH]nnc4c3)CC2)CC1 [Compound 92, 4-[4-(1H-Benzotriazole-5-carbonyl)-piperazin-1-yl]-piperidine-1-carboxylic acid 3-chloro-4-trifluoromethyl-benzyl ester] | < 1000 nM
2 | O=C(OCc1cc(C(F)(F)F)cc(C(F)(F)F)c1)N1CCN(C2CCN(C(=O)c3ccc4[nH]nnc4c3)CC2)C(=O)C1 [Compound 184, 4-[1-(1H-Benzotriazole-5-carbonyl)-piperidin-4-yl]-3-oxo-piperazine-1-carboxylic acid 3,5-bis-trifluoromethyl-benzyl ester] | < 1000 nM
3 | COc1cc(COC(=O)N2CCN(C3CCN(C(=O)c4ccc5[nH]nnc5c4)CC3)CC2)cc(OC)c1OC [Compound 121, 4-[1-(1H-Benzotriazole-5-carbonyl)-piperidin-4-yl]-piperazine-1-carboxylic acid 3,4,5-trimethoxy-benzyl ester] | < 30000 nM
4 | O=C(Cc1ccc2[nH]nnc2c1)N1CCC(N2CCN(C(=O)Cc3cc(C(F)(F)F)cc(C(F)(F)F)c3)CC2)CC1 [Compound 141, 2-(1H-Benzotriazol-5-yl)-1-(4-{4-[2-(3,5-bis-trifluoromethyl-phenyl)-acetyl]-piperazin-1-yl}-piperidin-1-yl)-ethanone] | < 10000 nM
5 | O=C(OCc1ccc(Br)cc1)N1CCC(N2CCN(C(=O)c3ccc4[nH]nnc4c3)CC2)CC1 [Compound 80, 4-[4-(1H-Benzotriazole-5-carbonyl)-piperazin-1-yl]-piperidine-1-carboxylic acid 4-bromo-benzyl ester] | < 1000 nM
6 | O=C(OCc1ccc(OC(F)(F)F)c(Br)c1)N1CCN(C2CCN(C(=O)c3ccc4[nH]nnc4c3)CC2)CC1 [Compound 166, 4-[1-(1H-Benzotriazole-5-carbonyl)-piperidin-4-yl]-piperazine-1-carboxylic acid 3-bromo-4-trifluoromethoxy-benzyl ester] | < 1000 nM
7 | O=C(OCc1cc(F)c(F)c(Cl)c1)N1CCN(C2CCN(C(=O)c3ccc4[nH]nnc4c3)CC2)CC1 [Compound 116, 4-[1-(1H-Benzotriazole-5-carbonyl)-piperidin-4-yl]-piperazine-1-carboxylic acid 3-chloro-4,5-difluoro-benzyl ester] | < 1000 nM
8 | Cc1ccc(C(OC(=O)N2CCN(C3CCN(C(=O)c4ccc5[nH]nnc5c4)CC3)CC2)(C(F)(F)F)C(F)(F)F)cc1 [Compound 170, 4-[1-(1H-Benzotriazole-5-carbonyl)-piperidin-4-yl]-piperazine-1-carboxylic acid 2,2,2-trifluoro-1-p-tolyl-1-trifluoromethyl-ethyl ester] | < 10000 nM
9 | Cc1cc(C)cc(COC(=O)N2CCN(C3CCN(C(=O)c4ccc5[nH]nnc5c4)CC3)CC2)c1 [Compound 147, 4-[1-(1H-Benzotriazole-5-carbonyl)-piperidin-4-yl]-piperaizne-1-carboxylic acid 3,5-dimethyl-benzyl ester] | < 1000 nM
10 | O=C(COc1ccc(OC(F)(F)F)cc1)N1CCN(C2CCN(C(=O)c3ccc4[nH]nnc4c3)CC2)CC1 [Compound 160, 1-{4-[1-(1H-Benzotriazole-5-carbonyl)-piperidin-4-yl]-piperazin-1-yl}-2-(4-trifluoromethoxy-phenoxy)-ethanone] | < 10000 nM
11 | O=C(OCc1cc(C(F)(F)F)cc(C(F)(F)F)c1)N1CCN(C2CCN(C(=O)c3ccc4[nH]nnc4c3)CC2)CC1 [Compound 35, 4-[1-(1H-Benzotriazole-5-carbonyl)-piperidin-4-yl]-piperazine-1-carboxylic acid 3,5-bis-trifluoromethyl-benzyl ester] | < 1000 nM
12 | COc1c(C)cc(COC(=O)N2CCN(C3CCN(C(=O)c4ccc5[nH]nnc5c4)CC3)CC2)cc1C [Compound 120, 4-[1-(1H-Benzotriazole-5-carbonyl)-piperidin-4-yl]-piperazine-1-carboxylic acid 4-methoxy-3,5-dimethyl-benzyl ester] | < 10000 nM
13 | O=C(OCc1c(F)c(F)c(C(F)(F)F)c(F)c1F)N1CCN(C2CCN(C(=O)c3ccc4[nH]nnc4c3)CC2)CC1 [Compound 114, 4-[1-(1H-Benzotriazole-5-carbonyl)-piperidin-4-yl]-piperazine-1-carboxylic acid 2,3,5,6-tetrafluoro-4-trifluoromethyl-benzyl ester] | < 1000 nM
14 | O=C(OCc1ccc(OC(F)(F)F)cc1)N1CCC(N2CCN(C(=O)c3ccc4[nH]nnc4c3)CC2)CC1 [Compound 76, 4-[4-(1H-Benzotriazole-5-carbonyl)-piperazin-1-yl]-piperidine-1-carboxylic acid 4-trifluoromethoxy-benzyl ester] | < 1000 nM
15 | O=C(OCc1ccc2c(c1)OCCO2)N1CCN(C2CCN(C(=O)c3ccc4[nH]nnc4c3)CC2)CC1 [Compound 137, 4-[1-(1H-Benzotriazole-5-carbonyl)-piperidin-4-yl]-piperazine-1-carboxylic acid 2,3-dihydro-benzo[1,4]dioxin-6-ylmethyl ester] | < 10000 nM
16 | O=C(Cc1ccc(Cl)cc1)C(=O)N1CCN(C2CCN(C(=O)c3ccc4[nH]nnc4c3)CC2)CC1 [Compound 123, 1-{4-[1-(1H-Benzotriazole-5-carbonyl)-piperidin-4-yl]-piperazin-1-yl}-3-(4-chloro-phenyl)-propane-1,2-dione] | < 10000 nM
17 | CC(CC(=O)N1CCN(C2CCN(C(=O)c3ccc4[nH]nnc4c3)CC2)CC1)c1ccc(C(F)(F)F)cc1 (stereo not drawn) [Compound 177, 1-{4-[1-(1H-Benzotriazole-5-carbonyl)-piperidin-4-yl]-piperazin-1-yl}-3-(4-trifluoromethyl-phenyl)-butan-1-one] | < 10000 nM

Results, then the compound that gave them:

Row | IC50 | Compound
18 | < 1000 nM | O=C(CCc1ccc(C(F)(F)F)cc1)N1CCN(C2CCN(C(=O)c3ccc4[nH]c(=O)oc4c3)CC2)CC1 [Compound 33, 6-(4-{4-[3-(4-Trifluoromethyl-phenyl)-propionyl]-piperazin-1-yl}-piperidine-1-carbonyl)-3H-benzooxazol-2-one]
19 | < 1000 nM | O=C(OCc1cc(Cl)cc(C(F)(F)F)c1)N1CCC(N2CCN(C(=O)c3ccc4[nH]nnc4c3)CC2)CC1 [Compound 77, 4-[4-(1H-Benzotriazole-5-carbonyl)-piperazin-1-yl]-piperidine-1-carboxylic acid 3-chloro-5-trifluoromethyl-benzyl ester]
20 | < 1000 nM | Cc1c(Br)cc(COC(=O)N2CCN(C3CCN(C(=O)c4ccc5[nH]nnc5c4)CC3)CC2)cc1Br [Compound 98, 4-[1-(1H-Benzotriazole-5-carbonyl)-piperidin-4-yl]-piperazine-1-carboxylic acid 3,5-dibromo-4-methyl-benzyl ester]
21 | < 10000 nM | O=C(OCc1ccc(Br)cc1F)N1CCN(C2CCN(C(=O)c3ccc4[nH]nnc4c3)CC2)CC1 [Compound 156, 4-[1-(1H-Benzotriazole-5-carbonyl)-piperidin-4-yl]-piperazine-1-carboxylic acid 4-bromo-2-fluoro-benzyl ester]
22 | < 10000 nM | O=C(CCc1ccc(Cl)cc1Cl)N1CCC(N2CCN(C(=O)c3ccc4[nH]nnc4c3)CC2)CC1 [Compound 82, 1-{4-[4-(1H-Benzotriazole-5-carbonyl)-piperazin-1-yl]-piperidin-1-yl}-3-(2,4-dichloro-phenyl)-propan-1-one]
23 | < 10000 nM | O=C(Cc1ccc2[nH]nnc2c1)N1CCC(N2CCN(C(=O)Nc3cc(Cl)cc(Cl)c3)CC2)CC1 [Compound 140, 4-[1-(2-1H-Benzotriazol-5-yl-acetyl)-piperidin-4-yl]-piperazine-1-carboxylic acid (3,5-dichloro-phenyl)-amide]
24 | < 10000 nM | O=C(CCc1cc(Cl)c(F)c(Cl)c1)N1CCN(C2CCN(C(=O)c3ccc4[nH]nnc4c3)CC2)CC1 [Compound 104, 1-{4-[1-(1H-Benzotriazole-5-carbonyl)-piperidin-4-yl]-piperazin-1-yl}-3-(3,5-dichloro-4-fluoro-phenyl)-propan-1-one]
25 | < 1000 nM | O=C(CCc1ccc(C(F)(F)F)c(F)c1)N1CCN(C2CCN(C(=O)c3ccc4[nH]nnc4c3)CC2)CC1 [Compound 105, 1-{4-[1-(1H-Benzotriazole-5-carbonyl)-piperidin-4-yl]-piperazin-1-yl}-3-(3-fluoro-4-trifluoromethyl-phenyl)-propan-1-one]
26 | < 10000 nM | O=C(CCc1ccc(C(F)(F)F)cc1)N1CCC(N2CCN(C(=O)c3ccc4[nH]nnc4c3)CC2)CC1 [Compound 50, 1-{4-[4-(1H-Benzotriazole-5-carbonyl)-piperazin-1-yl]-piperidin-1-yl}-3-(4-trifluoromethyl-phenyl)-propan-1-one]
27 | < 1000 nM | O=C(OCc1ccc(Cl)cc1)N1CCN(C2CCN(C(=O)c3ccc4[nH]nnc4c3)CC2)CC1 [Compound 42, 4-[1-(1H-Benzotriazole-5-carbonyl)-piperidin-4-yl]-piperazine-1-carboxylic acid 4-chloro-benzyl ester]
28 | < 1000 nM | O=C(OCc1ccc(Cl)c(Cl)c1)N1CCC(N2CCN(C(=O)c3ccc4[nH]nnc4c3)CC2)CC1 [Compound 85, 4-[4-(1H-Benzotriazole-5-carbonyl)-piperazin-1-yl]-piperidine-1-carboxylic acid 3,4-dichloro-benzyl ester]
29 | < 10000 nM | O=C(CCc1ccc(Cl)cc1F)N1CCC(N2CCN(C(=O)c3ccc4[nH]nnc4c3)CC2)CC1 [Compound 61, 1-{4-[4-(1H-Benzotriazole-5-carbonyl)-piperazin-1-yl]-piperidin-1-yl}-3-(4-chloro-2-fluoro-phenyl)-propan-1-one]
30 | < 1000 nM | C[C@@H](OC(=O)N1CCN(C2CCN(C(=O)c3ccc4[nH]nnc4c3)CC2)CC1)c1cc(C(F)(F)F)cc(C(F)(F)F)c1 [Compound 169, 4-[1-(1H-Benzotriazole-5-carbonyl)-piperidin-4-yl]-piperazine-1-carboxylic acid (R)-1-(3,5-bis-trifluoromethyl-phenyl)-ethyl ester]
